# Data from patent US20120295866A1, “Synthesis And Use Of Glycoside Pro-Drug Analogs” (Nutek Pharma Ltd., priority 2011, published 2012).
# “Also recorded” adds a separate entry of the source.
# Columns and labels:
# [1] = Solubility determination of propofol analogs in D2O by 1H NMR with DSS internal standard; conditions: for solubility: D2O, water, thermodynamic from solid
# Protocol: Thus the soapy-like solutions obtained were diluted until opalescent and diluted further until the opalescence visually disappeared.
# rats = experiment: Clinical observations of rats during administration of propofol analogs in the pharmacokinetics study
# Protocol: (§1) Blood samples were to be taken pre-dose, during dose and post dose at designated intervals, with the blood quickly processed and stored at −70° C. until analysis.
# (§2) Formulations were prepared on the morning of the dosing day and each was passed through a 0.22 μm filter prior to being administered to animals. A standard dose of 0.168 mmol/Kg per analog was administered to each of the rats. […] Analog stability in the formulations was verified by preparing each formulation and harvesting 200 μL aliquots at 0, 1, 2 and 8 hr while standing at room temperature. After harvesting, each sample was immediately frozen in dry ice until analysis; concentrations of test compounds in the samples were examined by HPLC-UV.
# (§3) The animals were surgically prepared with indwelling cannula, double cannulation in carotid artery and jugular vein for i.v. infusion. The anesthetic pentobarbital was used during the surgery, and the animals were allowed to recover 3-5 days after surgery before the formulation was dosed. The dose formulation was administered intravenously via the jugular vein cannula. The 16.8 μmol/mL formulation was administered i.v. at a rate of 1 mL/Kg/min for 10 min.
# [2] = Pharmacokinetics: concentration of propofol in rat plasma after intravenous infusion of each pro-drug, LC/MS/MS; conditions: for Mean Concentration of Propofol in Rat Plasma After Intravenous Administration: analyte propofol from the administered compound; for pro-drug efficiency, release of propofol: releasing the propofol in a matter of minutes after infusion, rat
# Protocol: as §1, §2, §3
# (§4) Approximately 0.20 mL blood was collected at each designated time point from carotid artery via a catheter. A total of 12 plasma samples were taken from each animal: 1 pre-dose; 2 during the dose (5 into the 10 min infusion and one just prior termination of the 10 min infusion) and 9 post-infusion at 2, 5, 15, 30 min and 1, 2, 3, 4, and 6 hr post-dose. All blood samples were transferred into plastic microcentrifuge tubes containing 5 μL of K2-EDTA (0.5M) as anti-coagulant and placed on ice until processed for plasma. Blood samples were processed for plasma by centrifugation at approximately 5° C. Plasma samples were then stored in 1.5 mL tubes, quick frozen over dry ice and kept at −70±10° C. until LC/MSMS analysis.
# (§5) For each, a minimum of 6 standard point curve runs in duplicates, and minimum of 5 standards were back calculated to within ±20% of their nominal concentrations. The LLOQ of each test article in plasma was established and 6 QC samples were included in assay runs of samples to ensure assay performance.
# (§6) Plasma concentration versus time data was analyzed by non-compartmental approaches using the WinNonlin software program (version 5.2, Pharsight, Mountain View, Calif.) and the pharmacokinetic parameters T½, CL, Vss, AUC(0-t), AUC(0-inf), MRT, and graphs of plasma concentration versus time calculated for each.
# [3] = Pharmacokinetics: concentration of prodrug (or propofol) in rat plasma after intravenous infusion, LC/MS/MS; conditions: for Mean concentration of prodrug and propofol in rat plasma after intravenous infusion administration: analyte = administered compound; for AUC(0-inf) / AUC(0-t) / Cmax / MRT inf / Tmax / half-life / Vd / clearance: male, Sprague-Dawley, rat, plasma, iv, 0.168 mmol/Kg
# Protocol: as §1, §2, §3, §4, §5, §6
# [4] = time post-10 min i.v. infusion, 0.168 mmol/Kg
Compound,solubility [1],Clinical Observation: recovered at (rats; [4]),Mean Concentration of Propofol in Rat Plasma After Intravenous Administration ([2]; Time 0 h (pre-dose)),"pro-drug efficiency, release of propofol [2]",Mean concentration of prodrug and propofol in rat plasma after intravenous infusion administration ([3]; Time 0 h (pre-dose)),Mean concentration of prodrug and propofol in rat plasma after intravenous infusion administration ([3]; Time 0.25 h),Mean concentration of prodrug and propofol in rat plasma after intravenous infusion administration ([3]; Time 0.417 h),Mean concentration of prodrug and propofol in rat plasma after intravenous infusion administration ([3]; Time 0.667 h),Mean concentration of prodrug and propofol in rat plasma after intravenous infusion administration ([3]; Time 1.166 h),Mean concentration of prodrug and propofol in rat plasma after intravenous infusion administration ([3]; Time 2.166 h),Mean concentration of prodrug and propofol in rat plasma after intravenous infusion administration ([3]; Time 3.166 h),Mean concentration of prodrug and propofol in rat plasma after intravenous infusion administration ([3]; Time 4.166 h),Mean concentration of prodrug and propofol in rat plasma after intravenous infusion administration ([3]; Time 6.166 h),AUC(0-inf) [3],AUC(0-t) [3],Cmax [3],MRT inf [3],Tmax [3],half-life [3],Vd [3],other results
CC(C)c1cccc(C(C)C)c1OC(=O)OCCO[C@@H]1O[C@H](CO)[C@@H](O)[C@H](O)[C@H]1O [Compound 9],9.4 mM,recovered at about 30 min,BQL,very efficient pro-drugs,BQL,BQL,BQL,BQL,BQL,BQL,BQL,BQL,BQL,,,,,,,,Mean concentration of prodrug and propofol in rat plasma after intravenous infusion administration ([3]; Time 0.083 h (during 10 min infusion)): BQL; Mean concentration of prodrug and propofol in rat plasma after intravenous infusion administration ([3]; Time 0.167 h (end of 10 min infusion)): BQL; Mean concentration of prodrug and propofol in rat plasma after intravenous infusion administration ([3]; Time 0.2 h): BQL
CC(C)c1cccc(C(C)C)c1OC(=O)OCCCO[C@@H]1O[C@H](CO)[C@@H](O)[C@H](O)[C@H]1O [Compound 12],5.5 mM,recovered at about 30 min,BQL,very efficient pro-drugs,BQL,BQL,BQL,BQL,BQL,BQL,BQL,BQL,BQL,0.00122 µM·h,0.000773 µM·h,0.00678 µM,6 min,10.2 min,3.6 min,,Mean Concentration of Propofol in Rat Plasma After Intravenous Administration ([2]; Time 4.166 h): BQL; Mean Concentration of Propofol in Rat Plasma After Intravenous Administration ([2]; Time 6.166 h): BQL; Mean concentration of prodrug and propofol in rat plasma after intravenous infusion administration ([3]; Time 0.2 h): BQL
CC(C)c1cccc(C(C)C)c1OC(=O)NCCO[C@@H]1O[C@H](CO)[C@@H](O)[C@H](O)[C@H]1O [Compound 17],1.6 mM,,BQL,,BQL,,,,,,,,,71.8 µM·h,61.6 µM·h,313 µM,16.6 min,10.2 min,26.2 min,0.657 L/kg,"water solubility (in words) ([1]; reason for cosolvent in the dose formulation): poor water solubility; Clinical Observation (adverse findings, individual rats) (rats; times post-10 min infusion, vehicle 10% Tween80, cloudy): died at 15 min; also recorded: died at 1.5 h from hematuria; Mean Concentration of Propofol in Rat Plasma After Intravenous Administration ([2]; Time 2.166 h): BQL; Mean Concentration of Propofol in Rat Plasma After Intravenous Administration ([2]; Time 3.166 h): BQL; Mean Concentration of Propofol in Rat Plasma After Intravenous Administration ([2]; Time 4.166 h): BQL; Mean Concentration of Propofol in Rat Plasma After Intravenous Administration ([2]; Time 6.166 h): BQL; clearance [3]: 39.1 mL/min/kg"
CC(C)c1cccc(C(C)C)c1OC(=O)OCCO[C@@H]1O[C@H](CO)C(O[C@H]2O[C@H](CO)[C@@H](O)[C@H](O)[C@H]2O)[C@H](O)[C@H]1O (stereo partly drawn) [Compound 24],> 20 mM,recovered at about 30 min,BQL,very efficient pro-drugs,BQL,,,,,BQL,,BQL,BQL,0.791 µM·h,0.786 µM·h,8.1 µM,12.4 min,8.4 min,53.2 min,120 L/kg,clearance [3]: 5800 mL/min/kg
"CC(C)c1cccc(C(C)C)c1OC(=O)OCCCO[C@@H]1O[C@H](CO)C(O[C@H]2O[C@H](CO)[C@@H](O)[C@H](O)[C@H]2O)[C@H](O)[C@H]1O (stereo partly drawn) [Compound 25, 1-((2′,6′-diisopropylphenoxy)carbonyloxy)propyl-β-D-maltose]",> 20 mM,recovered at about 35 min,BQL,very efficient pro-drugs,BQL,,,,,,BQL,BQL,BQL,8.57 µM·h,8.57 µM·h,68.4 µM,4.62 min,10.2 min,15.2 min,1.51 L/kg,clearance [3]: 337 mL/min/kg
CC(C)c1cccc(C(C)C)c1OC(=O)OCCO[C@H]1O[C@H](CO)[C@@H](O)[C@H](O)[C@H]1O [Compound 32],13.3 mM,recovered at about 26 min,BQL,very efficient pro-drugs,BQL,BQL,BQL,BQL,BQL,BQL,BQL,BQL,BQL,,0.000657 µM·h,0.00538 µM,,8.4 min,,,Clinical Observation: Rats soporous at (rats; [4]): Rats soporous at about 3 min and
CC(C)c1cccc(C(C)C)c1OC(=O)OCCCO[C@H]1O[C@H](CO)[C@@H](O)[C@H](O)[C@H]1O [Compound 33],5.7 mM,recovered at about 30 min,BQL,very efficient pro-drugs,BQL,BQL,BQL,BQL,BQL,BQL,BQL,BQL,BQL,,0.00304 µM·h,0.0231 µM,,10.2 min,,,Clinical Observation: Rats soporous at (rats; [4]): Rats soporous at about 3 min and; Mean Concentration of Propofol in Rat Plasma After Intravenous Administration ([2]; Time 4.166 h): BQL; Mean Concentration of Propofol in Rat Plasma After Intravenous Administration ([2]; Time 6.166 h): BQL
"CC(C)c1cccc(C(C)C)c1O [Propofol, 2,6-diisopropylphenol, reference compound]",1.1 mM,,BQL,,,,,,,,,,,12.6 µM·h,10.6 µM·h,31.9 µM,209 min,10.8 min,383 min,61.2 L/kg,"Clinical Observation: Rats soporous at (rats; [4]): Rats soporous at about 4 min and; Clinical Observation: recovered at (rats; time post-10 min infusion, 5% cremophor vehicle): recovered at about 1.5 hr; clearance [3]: 265 mL/min/kg"
